In PubChem BioAssay (NCI) one finds GI50 and TGI data, which are given here for eight molecules.

Holding throughout (assay): growth of human tumour cells (NCI), 48 h
The subject of experiment [1] is HS 578T breast.
The test system of experiment [2] is HT29 colon.
Experiment [3] relates to MDA-MB-231 breast.
Experiment [4] deals with MDA-MB-435.
The test system of experiment [5] is OVCAR-8 ovarian.
Experiment [6] relates to SN12C renal.
Experiment [7] relates to SW-620 colon.
Experiment [8] relates to T-47D breast.
The subject of experiment [9] is TK-10 renal.
Experiment [10] deals with UACC-62 melanoma.

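Five compound concentrations were applied to cells in 96-well plates for 48 hours; endpoints were derived by simple linear interpolation of the resulting dose-response curve. GI50 = concentration required for 50% inhibition of growth. TGI: concentration producing complete growth inhibition.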

Regarding `COc1ccc2c(c1)/C(=C\c1c(Cl)n(C)c3ccccc13)C(=O)N2`, the GI50 in experiment [1] was 1.44 µM; in experiment [2] it was 0.574 µM; in experiment [3], 0.399 µM; in [4], 0.286 µM; in experiment [5], 1.89 µM; in experiment [6] it was 2.57 µM. Moreover, the GI50 in experiment [7] is 1.13 µM; in experiment [8], 3.02 µM; in experiment [9], 9.26 µM; in [10] it was 0.255 µM. For the same molecule, the TGI in experiment [1] was 8.12 µM; in [2], above 100 µM; in experiment [3], 9.53 µM; in experiment [4], 1.26 µM; in [5] it was 11.9 µM; in [6] it was 20.1 µM. The TGI in experiment [7] was determined as 17.1 µM; in experiment [8] it was 31.4 µM; in experiment [9] it was 34.2 µM; in [10] it was 5.34 µM.

As for `O=C(CN1C(=O)S/C(=C\C(Cl)=C\c2ccccc2)C1=O)NCCc1ccc(O)cc1`, the GI50 was 2.72 µM in experiment [1]; 3.02 µM in experiment [2]; 2.09 µM in experiment [3]; 2.09 µM in experiment [4]; 2.97 µM in experiment [5]; 2.34 µM in experiment [6]. The GI50 in experiment [7] was 1.82 µM; in [8], 2.47 µM; in [9], 2.42 µM; in [10], 1.7 µM. Moreover, the TGI in experiment [1] is 7.97 µM; in experiment [2] it was 12.3 µM; in [3], 6.52 µM; in experiment [4], 5.28 µM; in [5], above 100 µM; in experiment [6], 9.79 µM. Moreover, the TGI in experiment [7] was 4.22 µM; in experiment [8], 8.65 µM; in experiment [9], 5.02 µM; in experiment [10], 3.96 µM.

Regarding `C=CC[C@@H]1/C=C(\C)C[C@H](C)C[C@H](OC)[C@H]2O[C@@](O)(C(=O)C(=O)N3CCCC[C@H]3C(=O)O[C@H](/C(C)=C/C3CC[C@@H](O)[C@H](OC)C3)[C@H](C)[C@@H](O)CC1=O)[C@H](C)C[C@@H]2OC` (some centres undefined), the GI50 in [1] was 21.9 µM; in experiment [2], 17.6 µM; in [3], 15.8 µM; in [4], 16.2 µM; in experiment [5], 16 µM; in [6], 16.3 µM. In addition, the GI50 in experiment [7] is 16.5 µM; in experiment [8] it was 16.5 µM; in experiment [9] it was 14.3 µM; in experiment [10], 13.4 µM. The TGI turned out to be 65.9 µM in [1]; 33.5 µM in experiment [2]; 31.4 µM in experiment [3]; 37.7 µM in [4]; 39.3 µM in experiment [5]; 31.6 µM in [6]. The TGI in experiment [7] is 32.2 µM; in experiment [8], 35.6 µM; in [9], 27.8 µM; in [10], 27.6 µM.

Regarding `CCCCCCCCCCCCCCCCCC(=O)OCC(COC1OC(CS(=O)(=O)O)C(O)C(O)C1O)OC(=O)CCCCCCCCCCCCCCCCC` (centres undefined), the TGI in experiment [1], in experiment [2], in [3], in experiment [4], in experiment [5] and in experiment [6] was above 100 µM throughout. The TGI in [7], in [8], in [9] and in [10] was above 100 µM throughout.

As to `N#Cc1cc(N(CCCl)CCCl)c([N+](=O)[O-])cc1[N+](=O)[O-]`, the TGI in experiment [1], in experiment [2], in experiment [3], in experiment [4], in [5] and in [6] was above 100 µM throughout. Further, the TGI was above 100 µM in [7], 57.2 µM in experiment [8], above 100 µM in experiment [9] and above 100 µM in experiment [10].

For `COc1ccc(OC)c(/C=C2\COc3ccc(O)c(O)c3C2=O)c1`, the GI50 was 5.3 µM in [1]; 2.68 µM in experiment [2]; 2.74 µM in experiment [3]; 1.97 µM in experiment [4]; 3.05 µM in experiment [5]; 2.55 µM in experiment [6]. Further, the GI50 in experiment [7] is 2.22 µM; in [8] it was 2.64 µM; in [9], 4 µM; in experiment [10], 1.79 µM. The TGI came out at 36.8 µM in [1]; 6.6 µM in experiment [2]; 11.8 µM in experiment [3]; 5.48 µM in [4]; 27 µM in [5]; 11.7 µM in experiment [6]. In addition, the TGI came to 5.98 µM in experiment [7], 15.2 µM in [8], 14.3 µM in experiment [9] and 4.51 µM in experiment [10].

For the molecule `Clc1ccc(C2=NN[C@H](c3cn(-c4ccccc4)nc3-c3ccccc3)C2)cc1`, the GI50 in experiment [1] is 3.46 µM; in experiment [2], 5.76 µM; in experiment [3], 5.91 µM; in experiment [4], 5.13 µM; in experiment [5], 2.74 µM; in experiment [6], 3.61 µM. Moreover, the GI50 is 4.31 µM in experiment [7], 3.91 µM in experiment [8], 5.87 µM in experiment [9] and 7.06 µM in experiment [10]. Also, the TGI in experiment [1] was 15.9 µM; in [2], 55.8 µM; in experiment [3], 24.9 µM; in experiment [4] it was above 100 µM; in [5] it was 8.29 µM; in experiment [6] it was 17.2 µM. Besides, the TGI came to 32 µM in [7], 18.8 µM in [8], 18.6 µM in experiment [9] and 28.4 µM in experiment [10].

As to `N=c1n(Cc2ccccc2)c(N)cc(=O)n1Cc1ccccc1`, the GI50 was 1.04 µM in experiment [1]; 3.81 µM in experiment [2]; 7.45 µM in experiment [3]; 3.54 µM in experiment [4]; 3.18 µM in [5]; 1.34 µM in experiment [6]. For the same molecule, the GI50 is 3.05 µM in [7], 3.01 µM in experiment [8], 2.22 µM in experiment [9] and 3.55 µM in experiment [10]. The TGI was found to be 12.8 µM in experiment [2]; 42.5 µM in experiment [3]; 13.8 µM in experiment [4]; 11.4 µM in experiment [5]; 18.1 µM in [6]; 11.1 µM in experiment [7]. The TGI in experiment [8] is 12.4 µM; in [9], 7.47 µM; in experiment [10] it was 12 µM.
